From the CheMixHub viscosity set

Assay: xn = mol fraction of the nth substance listed

COCCOCCOC + CCCCCCCCCO
101 kPa
Conditions | viscosity [mPa·s]
293.15 K, x1 = 0.03749 | 9.714
293.15 K, x1 = 0.09901 | 7.617
293.15 K, x1 = 0.1933 | 5.424
293.15 K, x1 = 0.2971 | 3.978
293.15 K, x1 = 0.4043 | 3.002
293.15 K, x1 = 0.4948 | 2.43
293.15 K, x1 = 0.597 | 1.978
293.15 K, x1 = 0.6959 | 1.641
293.15 K, x1 = 0.822 | 1.36
293.15 K, x1 = 0.9135 | 1.201
293.15 K, x1 = 0.9364 | 1.177
303.15 K, x1 = 0.03786 | 6.826
303.15 K, x1 = 0.1002 | 5.439
303.15 K, x1 = 0.1822 | 4.165
303.15 K, x1 = 0.2967 | 3.028
303.15 K, x1 = 0.4005 | 2.353
303.15 K, x1 = 0.5022 | 1.911
303.15 K, x1 = 0.5943 | 1.603
303.15 K, x1 = 0.7009 | 1.347
303.15 K, x1 = 0.7989 | 1.167
303.15 K, x1 = 0.894 | 1.038
303.15 K, x1 = 0.9511 | 0.975
313.15 K, x1 = 0.03928 | 4.899
313.15 K, x1 = 0.1017 | 4.015
313.15 K, x1 = 0.198 | 3.05
313.15 K, x1 = 0.304 | 2.349
313.15 K, x1 = 0.3952 | 1.91
313.15 K, x1 = 0.5025 | 1.559
313.15 K, x1 = 0.5982 | 1.312
313.15 K, x1 = 0.6977 | 1.134
313.15 K, x1 = 0.7914 | 1.001
313.15 K, x1 = 0.8971 | 0.884
313.15 K, x1 = 0.9456 | 0.842

COCCOCCOC + CCCCCCCO
101 kPa
Conditions | viscosity [mPa·s]
293.15 K, x1 = 0.04527 | 5.749
293.15 K, x1 = 0.09631 | 4.758
293.15 K, x1 = 0.1964 | 3.424
293.15 K, x1 = 0.2974 | 2.659
293.15 K, x1 = 0.3948 | 2.201
293.15 K, x1 = 0.4982 | 1.826
293.15 K, x1 = 0.5957 | 1.573
293.15 K, x1 = 0.6957 | 1.385
293.15 K, x1 = 0.8053 | 1.255
293.15 K, x1 = 0.8916 | 1.169
293.15 K, x1 = 0.957 | 1.12
303.15 K, x1 = 0.05391 | 4.113
303.15 K, x1 = 0.09481 | 3.59
303.15 K, x1 = 0.198 | 2.635
303.15 K, x1 = 0.2974 | 2.097
303.15 K, x1 = 0.3935 | 1.765
303.15 K, x1 = 0.4894 | 1.515
303.15 K, x1 = 0.5993 | 1.294
303.15 K, x1 = 0.6968 | 1.153
303.15 K, x1 = 0.8032 | 1.053
303.15 K, x1 = 0.8887 | 0.999
303.15 K, x1 = 0.9613 | 0.958
313.15 K, x1 = 0.05044 | 3.122
313.15 K, x1 = 0.0869 | 2.793
313.15 K, x1 = 0.1869 | 2.128
313.15 K, x1 = 0.2981 | 1.689
313.15 K, x1 = 0.3977 | 1.428
313.15 K, x1 = 0.5081 | 1.228
313.15 K, x1 = 0.5937 | 1.096
313.15 K, x1 = 0.7001 | 0.974
313.15 K, x1 = 0.7989 | 0.903
313.15 K, x1 = 0.8893 | 0.848
313.15 K, x1 = 0.9538 | 0.819

ClC(Cl)C(Cl)Cl + CCCCCCCO
303.15 K, 101 kPa
Conditions | viscosity [mPa·s]
x2 = 0.1082 | 1.677
x2 = 0.2331 | 1.902
x2 = 0.3041 | 2.042
x2 = 0.3446 | 2.126
x2 = 0.4479 | 2.367
x2 = 0.5205 | 2.568
x2 = 0.6548 | 3.047
x2 = 0.781 | 3.616
x2 = 0.8562 | 4.014
x2 = 0.9304 | 4.446

COCCOCCOC + CCCCCCO
101 kPa
Conditions | viscosity [mPa·s]
293.15 K, x1 = 0.04448 | 4.368
293.15 K, x1 = 0.105 | 3.527
293.15 K, x1 = 0.1942 | 2.714
293.15 K, x1 = 0.3018 | 2.148
293.15 K, x1 = 0.4004 | 1.796
293.15 K, x1 = 0.4511 | 1.674
293.15 K, x1 = 0.6059 | 1.383
293.15 K, x1 = 0.6997 | 1.285
293.15 K, x1 = 0.7893 | 1.204
293.15 K, x1 = 0.9139 | 1.128
293.15 K, x1 = 0.9331 | 1.117
303.15 K, x1 = 0.04385 | 3.29
303.15 K, x1 = 0.09867 | 2.69
303.15 K, x1 = 0.1894 | 2.153
303.15 K, x1 = 0.2974 | 1.72
303.15 K, x1 = 0.4047 | 1.435
303.15 K, x1 = 0.4914 | 1.28
303.15 K, x1 = 0.6035 | 1.141
303.15 K, x1 = 0.7106 | 1.046
303.15 K, x1 = 0.7884 | 0.996
303.15 K, x1 = 0.9193 | 0.945
303.15 K, x1 = 0.942 | 0.937
313.15 K, x1 = 0.04597 | 2.536
313.15 K, x1 = 0.09846 | 2.162
313.15 K, x1 = 0.1996 | 1.706
313.15 K, x1 = 0.2989 | 1.412
313.15 K, x1 = 0.4011 | 1.226
313.15 K, x1 = 0.4983 | 1.089
313.15 K, x1 = 0.5998 | 0.991
313.15 K, x1 = 0.7041 | 0.916
313.15 K, x1 = 0.7993 | 0.866
313.15 K, x1 = 0.9072 | 0.825
313.15 K, x1 = 0.942 | 0.815

CCCCCCn1cc[n+](C)c1.F[B-](F)(F)F + CCCCCO
101.33 kPa, x1 = 0.135
Conditions | viscosity [mPa·s]
315 K | 5.305
315.75 K | 4.745
